Results as given in ChEMBL document CHEMBL3774365, “Design, synthesis, pharmacological evaluation, and docking study of new acridone-based 1,2,4-oxadiazoles as potential anticonvulsant agents” (Eur J Med Chem, 2016).
Active and inactive are the calls of the source. The calls are words filed in the database; no cut-off is given here.

Columns and labels:
Mus musculus [1] = test: Anticonvulsant activity against pentylenetetrazole-induced seizures in ip dosed mouse incubated for 30 mins prior to pentylenetetrazole challenge measured after 30 mins; format: functional
Mus musculus [2] = test: Anticonvulsant activity against maximal electroshock-induced seizures in ip dosed mouse assessed as protection against hind limb tonic extension incubated for 30 mins prior to 60 Hz maximal electroshock challenge measured for 30 s; format: functional; settings: Hindlimb
[3] = Neurotoxicity in ip dosed mouse assessed as minimal motor impairment measured for 1 min by rotarod test; format: toxicity, organism-based; settings: in vivo
[4] = Protective index, ratio of TD50 for ip dosed mouse neurotoxicity to ED50 for protection against PTZ-induced seizure in ip dosed mouse; format: toxicity, organism-based; settings: in vivo, read-out: Ratio TD50/ED50
[5] = Protective index, ratio of TD50 for ip dosed mouse neurotoxicity to ED50 for protection against 60 Hz electroshock-induced seizure in ip dosed mouse; format: toxicity, organism-based; settings: in vivo, read-out: Ratio TD50/ED50
MCF7 = test: Cytotoxicity against human MCF7 cells after 48 hrs by MTT assay; format: cell-based; settings: MCF7, 48 h
T47D = test: Cytotoxicity against human T47D cells after 48 hrs by MTT assay; format: cell-based
MDA-MB-231 = test: Cytotoxicity against human MDA-MB-231 cells after 48 hrs by MTT assay; format: cell-based; settings: MDA-MB-231, 48 h
Mus musculus [6] = test: Potency index, ratio of phenobarbital ED50 to compound ED50 for protection against maximal electroshock-induced seizures in ip dosed mouse; format: functional
Mus musculus [7] = test: Anticonvulsant activity against pentylenetetrazole-induced seizures in mouse at 1 to 10 mg/kg, ip incubated for 30 mins prior to PTZ challenge measured after 30 mins in presence of benzodiazepine receptor antagonist flumazenil; format: functional, organism-based

| SMILES | ED50 (Mus musculus [1]) | ED50 (Mus musculus [2]) | TD50 at 1 min [3] | selectivity ratio [4] | selectivity ratio [5] | IC50 (MCF7) | IC50 (T47D) | IC50 (MDA-MB-231) | Ratio ED50 (Mus musculus [6]) | Activity (Mus musculus [7]) |
| --- | --- | --- | --- | --- | --- | --- | --- | --- | --- | --- |
| Cc1ccc(-c2noc(Cn3c4ccccc4c(=O)c4cc(Br)ccc43)n2)cc1 | > 50 mg/kg | 5.12 mg/kg | 594 mg/kg | < 11.9 | 116 | > 50 µM | > 50 µM | > 50 µM |  |  |
| Cc1ccc2c(c1)c(=O)c1ccccc1n2Cc1nc(-c2ccc(Cl)cc2)no1 | 15.2 mg/kg | 6.53 mg/kg | 475 mg/kg | 31.3 | 72.7 | > 50 µM | > 50 µM | > 50 µM |  |  |
| COc1cc([C@@H]2c3cc4c(cc3[C@@H](O[C@@H]3O[C@@H]5CO[C@@H](C)O[C@H]5[C@H](O)[C@H]3O)[C@H]3COC(=O)[C@H]23)OCO4)cc(OC)c1O [ETOPOSIDE] |  |  |  |  |  |  | 11.8 µM | 15.7 µM |  |  |
| COc1ccc(-c2noc(Cn3c4ccccc4c(=O)c4cc(Br)ccc43)n2)cc1 | 6.21 mg/kg | 8.71 mg/kg | 471 mg/kg | 75.8 | 54.1 | > 50 µM | > 50 µM | > 50 µM |  |  |
| Cc1ccc(-c2noc(Cn3c4ccccc4c(=O)c4ccccc43)n2)cc1 | 6.37 mg/kg | 2.52 mg/kg | 538 mg/kg | 84.5 | 214 | > 50 µM | > 50 µM | > 50 µM | 7 |  |
| Cc1ccc(-c2noc(Cn3c4ccccc4c(=O)c4cc(C)ccc43)n2)cc1 | > 50 mg/kg | 2.77 mg/kg | 542 mg/kg | < 10.8 | 196 | > 50 µM | > 50 µM | > 50 µM | 7 |  |
| O=c1c2ccccc2n(Cc2nc(-c3ccc(Cl)cc3)no2)c2ccc(Br)cc12 | 7.57 mg/kg | 2.87 mg/kg | 512 mg/kg | 67.6 | 178 | > 50 µM | > 50 µM | > 50 µM | 7 |  |
| COc1ccc2c(c1)c(=O)c1ccccc1n2Cc1nc(-c2ccc(Cl)cc2)no1 | 5.22 mg/kg | 3.68 mg/kg | 553 mg/kg | 106 | 150 | > 50 µM | > 50 µM | > 50 µM |  |  |
| CCc1ccc2c(c1)c(=O)c1ccccc1n2Cc1nc(-c2ccc(C)cc2)no1 | 18.9 mg/kg | 8.31 mg/kg | 496 mg/kg | 26.1 | 59.6 | > 50 µM | > 50 µM | > 50 µM |  |  |
| CN1C(=O)CN=C(c2ccccc2)c2cc(Cl)ccc21 [DIAZEPAM] | 0.68 mg/kg | 0.98 mg/kg |  |  |  |  |  |  |  |  |
| O=c1c2ccccc2n(Cc2nc(-c3ccc(Cl)cc3)no2)c2ccc(Cl)cc12 | 4.16 mg/kg | 2.64 mg/kg | 454 mg/kg | 109 | 172 | > 50 µM | > 50 µM | > 50 µM | 7 |  |
| O=c1c2ccccc2n(Cc2nc(-c3ccc(Cl)cc3)no2)c2ccccc12 | 5.78 mg/kg | 3.57 mg/kg | 528 mg/kg | 91.3 | 148 | > 50 µM | > 50 µM | > 50 µM |  |  |
| COc1ccc(-c2noc(Cn3c4ccccc4c(=O)c4cc(OC)ccc43)n2)cc1 | 2.12 mg/kg | 2.42 mg/kg | 462 mg/kg | 217 | 191 | > 50 µM | > 50 µM | > 50 µM | 7 |  |
| CCC1(c2ccccc2)C(=O)NC(=O)NC1=O [PHENOBARBITAL] | 12.4 mg/kg | 20.6 mg/kg | 68.9 mg/kg | 5.5 | 3.3 |  |  |  |  |  |
| COc1ccc(-c2noc(Cn3c4ccccc4c(=O)c4cc(Cl)ccc43)n2)cc1 | 2.08 mg/kg | 3.71 mg/kg | 438 mg/kg | 211 | 118 | > 50 µM | > 50 µM | > 50 µM |  | inactive |
| COc1ccc2c(c1)c(=O)c1ccccc1n2Cc1nc(-c2ccc(C)cc2)no1 | 6.32 mg/kg | 3.25 mg/kg | 522 mg/kg | 82.4 | 160 | > 50 µM | > 50 µM | > 50 µM |  |  |
| Cc1ccc(-c2noc(Cn3c4ccccc4c(=O)c4cc(Cl)ccc43)n2)cc1 | 6.25 mg/kg | 2.24 mg/kg | 483 mg/kg | 77.3 | 216 | > 50 µM | > 50 µM | > 50 µM | 7 |  |
